# Assay results from patent publication US10392422B2, “Macrocyclic broad spectrum antibiotics” (priority 2014, dated 2019).
# Where two headings read alike, the source gives them in different places.
# Assays:
# Assay in all cases: MIC, broth micro-dilution technique (CLSI)
# [1] = system: Escherichia coli MC4100 harboring the IMP4213; assay type: cell-based; conditions: 35° C., 22 hours; for MIC: Escherichia coli, 22 h, read-out: MIC (μg/mL) E. coli, Table 1 protocol: serial 2-fold dilutions starting from 64 μg/ml
# Description: (§1) In vitro antimicrobial activity of each compound was determined by measuring minimal inhibitor concentrations (MICs) using the broth micro-dilution technique as approved by the Clinical and Laboratory Standards Institute (CLSI) (Methods for Dilution Antimicrobial Susceptibility Tests for Bacteria that Grow Aerobically; Approved Standard—Eighth Edition. CLSI document M07-A8. Wayne, Pa.: Clinical and Laboratory Standards; 2009). Antibacterial activity was measured against three strains of bacteria: a Methicillin Resistant Staphylococcus aureus strain USA 300 (NRS384); a MRSA COL (NRS100), another Methicillin Resistant Staphylococcus aureus strain; and a strain of Escherichia coli MC4100 harboring the IMP4213, which results in increased outer-membrane permeability (B Martin and Silhavy T. Imp/OstA is required for cell envelope biogenesis in Escherichia coli. (2002) Molecular Microbiology, 45(5), 1289-1302). Cells were inoculated onto plates of Trypyticase Soy Agar or Luria Agar respectively and grown at 35° C. for 20 hours. Inocula suspensions were prepared by scraping cells into 1 ml of testing media (cation adjusted Mueller Hinton Broth supplemented with 0.002% v/v Tween-80) and diluting to a final OD600 nm of 0.01.
# (§2) Test compounds were prepared in DMSO at a concentration of 10 mg/ml. These compound stocks were diluted into testing media at a concentration of 64 μg/ml and serial 2-fold dilutions were made in the same media, in 96-well U bottom microtiter dishes, for a total of 10 compound concentrations (Table 1). In modified protocols (Table 2), compound stocks were diluted into testing media at a concentration of 4 μg/mL and serial 2-fold dilutions were made in the same media, in 96-well U bottom microtiter dishes, for a total of 10 compound concentrations. Inocula suspensions were added to the 2-fold serial dilutions of test compounds to a final density of OD OD600 nm of 0.0005 and incubated at 35° C. for 22 hours. […] The results from the protocol starting from a concentration of 64 µg/mL are listed in Table 1 and the results from the modified protocol are shown in Table 2.
# [2] = system: Methicillin Resistant Staphylococcus aureus strain USA 300 (NRS384); assay type: cell-based; conditions: for MIC: Staphylococcus aureus, 22 h, read-out: MIC (μg/mL) S. aureus
# Description: as §1, §2
# MRSA COL (NRS100) = assay type: cell-based, Staphylococcus aureus; conditions: for MIC: Staphylococcus aureus, 22 h, read-out: MIC (μg/mL) (COL)
# Description: as §1, §2
# [3] = Table 1 protocol: serial 2-fold dilutions starting from 64 μg/ml, 35° C., 22 hours
smiles,measurement,setting,value
CCCCCCCCCNCCCC(=O)N[C@@H](CCCCN)C(=O)N(C)[C@@H]1C(=O)N[C@@H](C)C(=O)N[C@H](C(=O)N[C@@H](C)C(C)=O)Cc2ccc(O)c(c2)-c2cc1ccc2O [Compound 111],MIC,[1],> 64 µg/mL
same,MIC,[2]; [3],23 µg/mL
same,MIC,MRSA COL (NRS100); [3],4 µg/mL
CCCCCCCCCCNCC(=O)N[C@@H](CCCCN)C(=O)N(C)[C@@H]1C(=O)N[C@@H](C)C(=O)N[C@H](C(=O)N[C@@H](C)C(C)=O)Cc2ccc(O)c(c2)-c2cc1ccc2O [Compound 112],MIC (μg/mL) E. coli,[1]; Table 1 protocol: serial 2-fold dilutions starting from 64 μg/ml,64 µg/mL
same,MIC (μg/mL) S. aureus,[2]; [3],2.8 µg/mL
same,MIC (μg/mL) (COL),MRSA COL (NRS100); [3],0.5 µg/mL
CCCCCCCCCCNCCC(=O)N[C@@H](CCCCN)C(=O)N(C)[C@@H]1C(=O)N[C@@H](C)C(=O)N[C@H](C(=O)O)Cc2ccc(O)c(c2)-c2cc1ccc2OCCN [Compound 113],MIC,[1],25 µg/mL
same,MIC,[2],9.5 µg/mL
same,MIC,MRSA COL (NRS100),2 µg/mL
CCCCCCCCCCNCCC(=O)N[C@@H](CCCCN)C(=O)N(C)[C@@H]1C(=O)N[C@@H](C)C(=O)N[C@H](C(=O)N[C@@H](C)C(C)=O)Cc2ccc(O)c(c2)-c2cc1ccc2O [Compound 114],MIC,[1],32 µg/mL
same,MIC,[2],> 64 µg/mL
same,MIC,MRSA COL (NRS100),1 µg/mL
CCCCCCCCCCNCCC(=O)N[C@@H](CCCCN)C(=O)N(C)[C@@H]1C(=O)N[C@@H](C)C(=O)N[C@H](C(=O)N[C@@H](C)C(=O)COC(C)=O)Cc2ccc(O)c(c2)-c2cc1ccc2OCCN [Compound 116],MIC,[1],13 µg/mL
same,MIC,[2],0.35 µg/mL
same,MIC,MRSA COL (NRS100),0.063 µg/mL
CC(=O)OCC(=O)[C@H](C)NC(=O)[C@@H]1Cc2ccc(O)c(c2)-c2cc(ccc2OCCN)[C@H](N(C)C(=O)[C@H](CCCCN)NC(=O)c2ccc(-c3ccc(Cl)cc3)cc2)C(=O)N[C@@H](C)C(=O)N1 [Compound 117],MIC,[1],1.6 µg/mL
same,MIC,[2],0.71 µg/mL
same,MIC,MRSA COL (NRS100),0.22 µg/mL
C[C@H](NC(=O)[C@@H]1Cc2ccc(O)c(c2)-c2cc(ccc2OCCN)[C@H](N(C)C(=O)[C@H](CCCCN)NC(=O)c2ccc(-c3ccc(Cl)cc3)cc2)C(=O)N[C@@H](C)C(=O)N1)C(=O)CO [Compound 118],MIC,[1],2 µg/mL
same,MIC,[2],1 µg/mL
same,MIC,MRSA COL (NRS100),0.63 µg/mL
CC(=O)[C@H](C)NC(=O)[C@@H]1Cc2ccc(O)c(c2)-c2cc(ccc2OCCN)[C@H](N(C)C(=O)[C@H](CCCCN)NC(=O)c2ccc(-c3ccc(Cl)cc3)cc2)C(=O)N[C@@H](C)C(=O)N1 [Compound 119],MIC,[1],5.3 µg/mL
same,MIC,[2],1 µg/mL
same,MIC,MRSA COL (NRS100),0.5 µg/mL
CC(=O)[C@H](C)NC(=O)[C@@H]1Cc2ccc(O)c(c2)-c2cc(ccc2OCC(=O)O)[C@H](N(C)C(=O)[C@H](CCCCN)NC(=O)c2ccc(-c3ccc(Cl)cc3)cc2)C(=O)N[C@@H](C)C(=O)N1 [Compound 120],MIC,[1],64 µg/mL
same,MIC,[2],51 µg/mL
same,MIC,MRSA COL (NRS100),13 µg/mL
CC(=O)[C@H](C)NC(=O)[C@@H]1Cc2ccc(O)c(c2)-c2cc(ccc2OCCO)[C@H](N(C)C(=O)[C@H](CCCCN)NC(=O)c2ccc(-c3ccc(Cl)cc3)cc2)C(=O)N[C@@H](C)C(=O)N1 [Compound 121],MIC,[1],32 µg/mL
same,MIC,[2],8 µg/mL
same,MIC,MRSA COL (NRS100),3 µg/mL
C[C@H](NC(=O)[C@@H]1Cc2ccc(O)c(c2)-c2cc(ccc2O)[C@H](N(C)C(=O)[C@H](CCCCN)NC(=O)c2ccc(-c3ccc(Cl)cc3)cc2)C(=O)N[C@@H](C)C(=O)N1)C(=O)CO [Compound 124],MIC,[1],16 µg/mL
same,MIC,[2],1 µg/mL
same,MIC,MRSA COL (NRS100),0.5 µg/mL
C[C@H](NC(=O)[C@@H]1Cc2ccc(O)c(c2)-c2cc(ccc2O)[C@H](N(C)C(=O)[C@H](CCCCN)NC(=O)c2ccc(-c3ccc(Cl)cc3)cc2)C(=O)N[C@@H](C)C(=O)N1)C(=O)/C=C/c1cc[nH]n1 [Compound 129],MIC,[1],> 64 µg/mL
same,MIC,[2]; [3],16 µg/mL
same,MIC,MRSA COL (NRS100); [3],4 µg/mL
C[C@H](NC(=O)[C@@H]1Cc2ccc(O)c(c2)-c2cc(ccc2O)[C@H](N(C)C(=O)[C@H](CCCCN)NC(=O)c2ccc(-c3ccc(Cl)cc3)cc2)C(=O)N[C@@H](C)C(=O)N1)C(=O)CCc1cc[nH]n1 [Compound 130],MIC,[1],> 64 µg/mL
same,MIC,[2]; [3],16 µg/mL
same,MIC,MRSA COL (NRS100); [3],8 µg/mL
